From patent publication US4325949A, “Combinations of agents which give enhanced anti-inflammatory activity” (American Cyanamid Company, priority 1980, dated 1982)
Values joined by “and” are separate entries in the source; they are usually repeats but may differ in a detail not shown here. Identical values can stand only once.

Key:
[1] = system: adjuvant induced arthritis; assay: adjuvant induced arthritis test in the rat (primary and secondary lesions); type: in vivo, rat (Royal Hart, Wistar strain)
Description: (§1) Groups of three Royal Hart, Wistar strain rats, weighing 200±10 g. each were injected intradermally in the right hind paw with Freund's adjuvant (dried human tubercle bacilli in a mineral oil vehicle) at a dose of 2 mg./kg. of body weight. Test compositions were administered orally in a 1.5% starch vehicle at various doses once daily on days 0 through 13 post challenge. Control rats were treated in a similar manner, but given only starch vehicle. On the 14th, 21st, 28th and 35th days post challenge the diameter of the injected paw (primary lesion) was measured by micrometer caliper. The volume of inflamed paws were estimated from these measurements and the results are expressed as percent inhibition of swelling as compared to controls. At the same time, the other inflamed sites, such as ears, paws and tail (secondary lesions) were observed and each rat was graded as to degree of inflammation and swelling present. The grading is based on a scale of 0 to 24, where 0 represents a complete absence of induced arthritic modules and 24 represents the maximum degree of inflammation. The mean grade for each treated group is calculated and the effects of each test compound are expressed as percent inhibition of the control grade. The following Tables I-V record the results of tests conducted with the compositions of this invention and conventional anti-inflammatory agents both separately and in combination. All tests were replicated several times. Each treatment group represents a total of 18 rats. Each challenged control group comprised 36 rats and each unchallenged control group was 9 rats.

[2] = body weight gain in the adjuvant induced arthritis test in the rat; type: in vivo, rat (Royal Hart, Wistar strain)
Description: as §1

[3] = system: arthritic paw swelling; settings: S. Wong et al. 1973; G. R. Bobalick et al. 1974; cited from earlier work
[4] = oral 25 mg/kg once daily, day 14
[5] = oral 25 mg/kg once daily, day 21
[6] = oral 25 mg/kg once daily, day 28
[7] = oral 25 mg/kg once daily, day 35
[8] = oral 50 mg/kg once daily, day 14
[9] = oral 50 mg/kg once daily, day 21
[10] = oral 50 mg/kg once daily, day 28
[11] = oral 50 mg/kg once daily, day 35
[12] = oral 100 mg/kg once daily, day 21, 100 mg/kg
[13] = oral 100 mg/kg once daily, day 14
[14] = oral 100 mg/kg once daily, day 21
[15] = oral 12.5 mg/kg once daily, day 14, 12.5 mg/kg
[16] = oral 12.5 mg/kg once daily, day 21, 12.5 mg/kg
[17] = oral 12.5 mg/kg once daily, day 28
[18] = oral 12.5 mg/kg once daily, day 35, 12.5 mg/kg
[19] = oral 25 mg/kg once daily, day 14, 25 mg/kg
[20] = oral 25 mg/kg once daily, day 21, 25 mg/kg
[21] = oral 25 mg/kg once daily, day 28, 25 mg/kg
[22] = oral 25 mg/kg once daily, day 35, 25 mg/kg
[23] = oral 0.25 mg/kg once daily, day 14, 0.25 mg/kg
[24] = oral 0.5 mg/kg once daily, day 14, 0.5 mg/kg
[25] = oral 0.5 mg/kg once daily, day 21, 0.5 mg/kg
[26] = oral 1.0 mg/kg once daily, day 14, 1 mg/kg
[27] = oral 1.0 mg/kg once daily, day 21, 1 mg/kg
[28] = oral 5 mg/kg once daily, day 14
[29] = oral 5 mg/kg once daily, day 21
[30] = oral 5 mg/kg once daily, day 28
[31] = oral 5 mg/kg once daily, day 35
[32] = oral 10 mg/kg once daily, day 14
[33] = oral 10 mg/kg once daily, day 21
[34] = oral 10 mg/kg once daily, day 28
[35] = oral 10 mg/kg once daily, day 35

## N#CCC(=O)c1ccc(F)cc1 [(p-Fluorobenzoyl)-acetonitrile]
[1]; [4]
  Primary Lesions (% Inhibition): 30%
  Secondary Lesions (% Inhibition): 23%
[1]; [5]
  Primary Lesions (% Inhibition): 17%
  Secondary Lesions (% Inhibition): 0%
[1]; [6]
  Primary Lesions (% Inhibition): 0%
  Secondary Lesions (% Inhibition): 0%
[1]; [7]
  Primary Lesions (% Inhibition): 6%
  Secondary Lesions (% Inhibition): 7%
[1]; [8]
  Primary Lesions (% Inhibition): 53%
  Secondary Lesions (% Inhibition): 34%
[1]; [9]
  Primary Lesions (% Inhibition): 32%
  Secondary Lesions (% Inhibition): 10%
[1]; [10]
  Primary Lesions (% Inhibition): 27%
  Secondary Lesions (% Inhibition): 28%
[1]; [11]
  Primary Lesions (% Inhibition): 22%
  Secondary Lesions (% Inhibition): 19%
[2]; [4]
  Body Weight Gain in Grams: 71 Grams
[2]; [5]
  Body Weight Gain in Grams: 65 Grams
[2]; [6]
  Body Weight Gain in Grams: 80 Grams
[2]; [7]
  Body Weight Gain in Grams: 111 Grams
[2]; [8]
  Body Weight Gain in Grams: 75 Grams
[2]; [9]
  Body Weight Gain in Grams: 77 Grams
[2]; [10]
  Body Weight Gain in Grams: 93 Grams
[2]; [11]
  Body Weight Gain in Grams: 125 Grams

## CC(=O)Oc1ccccc1C(=O)O [Aspirin, 2-(acetyloxy)benzoic acid, reference compound]
[1]; oral 50 mg/kg once daily, day 14, 50 mg/kg
  Primary Lesions (% Inhibition): 21% and 16%
[1]; oral 50 mg/kg once daily, day 21, 50 mg/kg
  Secondary Lesions (% Inhibition): 12% and 10%
[1]; oral 50 mg/kg once daily, day 28, 50 mg/kg
  Secondary Lesions (% Inhibition): 31% and 20%
[1]; [11]
  Primary Lesions (% Inhibition): 0%
[1]; [12]
  Primary Lesions (% Inhibition): 8% and 2%
[1]; oral 100 mg/kg once daily, day 35, 100 mg/kg
  Primary Lesions (% Inhibition): 5% and 1%
[2]; oral 100 mg/kg once daily, day 14, 100 mg/kg
  Body Weight Gain in Grams: 45 Grams and 47 Grams
[2]; [12]
  Body Weight Gain in Grams: 42 Grams and 46 Grams
[2]; oral 100 mg/kg once daily, day 28, 100 mg/kg
  Body Weight Gain in Grams: 44 Grams and 57 Grams

## N#CCC(=N)c1ccccc1 [Benzimidoylacetonitrile]
[1]; [4]
  Primary Lesions (% Inhibition): 56%
  Secondary Lesions (% Inhibition): 63%
[1]; [5]
  Primary Lesions (% Inhibition): 33%
  Secondary Lesions (% Inhibition): 24%
[1]; [8]
  Primary Lesions (% Inhibition): 68%
  Secondary Lesions (% Inhibition): 70%
[1]; [9]
  Primary Lesions (% Inhibition): 58%
  Secondary Lesions (% Inhibition): 43%
[1]; [13]
  Primary Lesions (% Inhibition): 68%
  Secondary Lesions (% Inhibition): 75%
[1]; [14]
  Primary Lesions (% Inhibition): 55%
  Secondary Lesions (% Inhibition): 34%
[2]; [4]
  Body Weight Gain in Grams: 72 Grams
[2]; [5]
  Body Weight Gain in Grams: 66 Grams
[2]; [8]
  Body Weight Gain in Grams: 77 Grams
[2]; [9]
  Body Weight Gain in Grams: 80 Grams
[2]; [13]
  Body Weight Gain in Grams: 70 Grams
[2]; [14]
  Body Weight Gain in Grams: 88 Grams

## N#CCC(=O)c1ccccc1 [Benzoylacetonitrile]
[1]; [15]
  Primary Lesions (% Inhibition): 44% and 49%
  Secondary Lesions (% Inhibition): 45% and 59%
[1]; [16]
  Primary Lesions (% Inhibition): 16% and 32%
[1]; [17]
  Secondary Lesions (% Inhibition): 25%
[1]; [18]
  Secondary Lesions (% Inhibition): 22% and 26%
[1]; [19]
  Primary Lesions (% Inhibition): 60% and 62% and 36%
  Secondary Lesions (% Inhibition): 70% and 62% and 50%
[1]; [20]
  Primary Lesions (% Inhibition): 36% and 38% and 24%
[1]; [21]
  Secondary Lesions (% Inhibition): 20% and 19%
[1]; [22]
  Secondary Lesions (% Inhibition): 38% and 20%
[1]; [8]
  Primary Lesions (% Inhibition): 60%
  Secondary Lesions (% Inhibition): 66%
[1]; [9]
  Primary Lesions (% Inhibition): 45%
  Secondary Lesions (% Inhibition): 43%
[1]; [13]
  Primary Lesions (% Inhibition): 55%
  Secondary Lesions (% Inhibition): 76%
[1]; [14]
  Primary Lesions (% Inhibition): 54%
  Secondary Lesions (% Inhibition): 56%
[2]; [15]
  Body Weight Gain in Grams: 57 Grams and 49 Grams
[2]; [16]
  Body Weight Gain in Grams: 53 Grams and 38 Grams
[2]; [17]
  Body Weight Gain in Grams: 55 Grams
[2]; [18]
  Body Weight Gain in Grams: 81 Grams and 68 Grams
[2]; [19]
  Body Weight Gain in Grams: 52 Grams and 47 Grams and 57 Grams
[2]; [20]
  Body Weight Gain in Grams: 52 Grams and 47 Grams and 57 Grams
[2]; [21]
  Body Weight Gain in Grams: 75 Grams and 51 Grams
[2]; [22]
  Body Weight Gain in Grams: 86 Grams and 69 Grams
[2]; [8]
  Body Weight Gain in Grams: 58 Grams
[2]; [9]
  Body Weight Gain in Grams: 62 Grams
[2]; [13]
  Body Weight Gain in Grams: 56 Grams
[2]; [14]
  Body Weight Gain in Grams: 79 Grams

## COc1ccc2c(c1)c(CC(=O)O)c(C)n2C(=O)c1ccc(Cl)cc1 [Indomethacin, 1-(4-chlorobenzoyl)-5-methoxy-2-methyl-1H-indole-3-acetic acid, reference compound]
[1]; [23]
  Primary Lesions (% Inhibition): 29% and 44%
  Secondary Lesions (% Inhibition): 22% and 25%
[1]; [24]
  Primary Lesions (% Inhibition): 50% and 41%
[1]; oral 0.5 mg/kg once daily, day 21
  Primary Lesions (% Inhibition): 8%
[1]; [25]
  Secondary Lesions (% Inhibition): 10% and 3%
[1]; [26]
  Primary Lesions (% Inhibition): 63% and 57%
  Secondary Lesions (% Inhibition): 54% and 48%
[1]; [27]
  Primary Lesions (% Inhibition): 27% and 24%
  Secondary Lesions (% Inhibition): 30% and 27%
[2]; [23]
  Body Weight Gain in Grams: 59 Grams and 43 Grams
[2]; oral 0.25 mg/kg once daily, day 21, 0.25 mg/kg
  Body Weight Gain in Grams: 45 Grams and 46 Grams
[2]; [24]
  Body Weight Gain in Grams: 71 Grams and 61 Grams
[2]; [25]
  Body Weight Gain in Grams: 57 Grams and 51 Grams
[2]; [26]
  Body Weight Gain in Grams: 92 Grams and 76 Grams
[2]; [27]
  Body Weight Gain in Grams: 84 Grams and 70 Grams
[3]
  arthritic paw swelling: inhibit arthritic paw swelling
  joint and bone deterioration: prevent joint and bone deterioration

## C[C@]12C=CC(=O)C=C1CC[C@@H]1[C@@H]2[C@@H](O)C[C@@]2(C)[C@H]1CC[C@]2(O)C(=O)CO [Prednisolone, reference compound]
[1]; [28]
  Primary Lesions (% Inhibition): 63%
  Secondary Lesions (% Inhibition): 45%
[1]; [29]
  Primary Lesions (% Inhibition): 24%
  Secondary Lesions (% Inhibition): 16%
[1]; [30]
  Primary Lesions (% Inhibition): 17%
  Secondary Lesions (% Inhibition): 5%
[1]; [31]
  Primary Lesions (% Inhibition): 11%
  Secondary Lesions (% Inhibition): 20%
[1]; [32]
  Primary Lesions (% Inhibition): 57%
  Secondary Lesions (% Inhibition): 55%
[1]; [33]
  Primary Lesions (% Inhibition): 24%
  Secondary Lesions (% Inhibition): 21%
[1]; [34]
  Primary Lesions (% Inhibition): 14%
  Secondary Lesions (% Inhibition): 3%
[1]; [35]
  Primary Lesions (% Inhibition): 13%
  Secondary Lesions (% Inhibition): 17%
[2]; [28]
  Body Weight Gain in Grams: 22 Grams
[2]; [29]
  Body Weight Gain in Grams: 26 Grams
[2]; [30]
  Body Weight Gain in Grams: 44 Grams
[2]; [31]
  Body Weight Gain in Grams: 71 Grams
[2]; [32]
  Body Weight Gain in Grams: 23 Grams
[2]; [33]
  Body Weight Gain in Grams: 47 Grams
[2]; [34]
  Body Weight Gain in Grams: 75 Grams
[2]; [35]
  Body Weight Gain in Grams: 95 Grams

## N#CC=C(N)c1cccs1 [β-Amino-2-thiopheneacrylonitrile]
[1]; [8]
  Primary Lesions (% Inhibition): 16%
  Secondary Lesions (% Inhibition): 13%
[1]; [9]
  Primary Lesions (% Inhibition): 14%
  Secondary Lesions (% Inhibition): 0%
[1]; [10]
  Primary Lesions (% Inhibition): 6%
  Secondary Lesions (% Inhibition): 4%
[1]; [11]
  Primary Lesions (% Inhibition): 1%
  Secondary Lesions (% Inhibition): 11%
[2]; [8]
  Body Weight Gain in Grams: 63 Grams
[2]; [9]
  Body Weight Gain in Grams: 66 Grams
[2]; [10]
  Body Weight Gain in Grams: 76 Grams
[2]; [11]
  Body Weight Gain in Grams: 108 Grams
